Data: patent US7098334B2 (Industrial Research Limited, priority 2002, dated 2006)
Structures can show the parent of a compound that is named as a salt. Where two headings read alike, the source gives them in different places.

How the values were obtained:
[1] = target: MTAN (Escherichia coli, UniProt P0AF12); assay: Enzyme inhibition assay, MTAN (slow-onset inhibition constants); assay type: biochemical; conditions: for Ki: MTAN
Procedure: (§1) Ki as shown in Tables 1 and 2 is the initial inhibition constant formed by the enzyme-inhibitor complex, and Ki* is the equilibrium dissociation constant for inhibition that is observed following a period of slow-onset, tight binding inhibition. Ki* is the biologically effective constant.
(§2) Enzyme assays were conducted to assess the effectiveness of selected compounds of the invention as inhibitors of MTAP and MTAN.
(§3) Inhibitors.—Inhibitor concentrations were determined by the UV absorbance spectrum using the published millimolar extinction coefficients for 9-dazadenine of 8.5 at 275 nm at pH 7.0.
(§4) Assays.—The direct spectrophotometric assay for the conversion of MTA into adenine was measured as the decrease in absorbance at 274 nm. At 274 nm, Δε between MTA and adenine is at a maximum and produces a spectral change of 1.6 absorbance units/cm/mM (DeWolf, W. E. Jr., Fullin, F. A., and Schramm, V. L. (1979) J. Biol. Chem. 254, 10868–10875)
(§5) Slow-Onset Inhibition and Inhibition Constants.—The kinetics for slow onset inhibition and the Ki measurement was carried out by adding a known concentration of enzyme (1–5 nM) to a reaction mixture containing a substrate concentration of 200 μM. This concentration corresponds to an OD of 0.7–1.1 at […]. The formation of product was monitored as a decrease in absorbance at 274 nm. Conditions for Ki* determination used high concentrations of substrate. Two controls, one having no inhibitor and the other no enzyme were included in the experiment. The Ki values MTAP for the various compounds were calculated by fitting in the ratio of initial rates in the presence of inhibitor to without any inhibitor versus the inhibitor concentration, for the known Km and substrate concentration into the following expression.
(§6) Where Vo′ is the rate in the presence of inhibitor • Vo rate in the absence of inhibitor • [I] inhibitor concentration • And [S] is the substrate concentration
(§7) And the Ki* was calculated by fitting to the following expression
(§8) Where Vs′ is the steady-state rate following attainment of equilibrium in the presence inhibitor, and Vs is the steady-state rate in the control having no inhibitor. Both these equations are valid for competitive type inhibition.

[2] = target: T1, human MTAP (Homo sapiens, UniProt Q13126); assay: Enzyme inhibition assay, MTAP (slow-onset inhibition constants); assay type: biochemical; conditions: for Ki: MTAP
T1 construct: inferred from pQE32 vector and Ni-NTA purification) (N); made in house; host or cells: E. coli
T1 sequence (Q13126 1-283): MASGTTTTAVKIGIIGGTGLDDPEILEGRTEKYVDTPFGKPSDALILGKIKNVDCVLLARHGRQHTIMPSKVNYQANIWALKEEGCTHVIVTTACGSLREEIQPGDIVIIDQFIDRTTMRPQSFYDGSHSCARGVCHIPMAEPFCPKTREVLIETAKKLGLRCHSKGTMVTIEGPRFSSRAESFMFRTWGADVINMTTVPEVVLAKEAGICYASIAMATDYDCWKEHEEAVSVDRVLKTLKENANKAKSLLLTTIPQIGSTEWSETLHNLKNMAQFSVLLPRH
Procedure: as §1, §2
Enzymes.—The human MTAP protein was cloned into pQE32 expression vector and transformed into E. coli. Induction cultures containing 1 L (25 mg/L) and 50 μg/mL ampicillin were inoculated with 1 mL overnight grown starter-culture and incubated at 37° C. When the cultures reached an OD of ≈0.6 they were induced with 1.5 mM IPTG for 6 to 8 hours. Cells were harvested by centrifugation at 5000 rpm for 30 min, and subsequently resuspended in a buffer (20 mM imidazole, 300 mM NaCl, 0.2 mM phenylmethylsulfonyl fluoride (PMSF), 100 mM Tris, pH 8.0) containing a small amount of lysozyme to weaken the cell membrane. Cells were lysed with a French press. The insoluble material was removed by high-speed centrifugation. The cell extract was further clarified with 35% ammonium sulfate precipitation followed by high-speed centrifugation. The clarified cell extract was then applied to a 5 mL Ni-NTA column that had previously been equilibrated with the binding buffer. Further chromatographic steps were carried out by FPLC. The column was washed with 10 volumes of 50 mM imidazole, 300 mM NaCl, and 100 mM Tris, pH 8.0, and the protein was eluted with a buffer containing a 50–250 mM gradient of imidazole, 300 mM NaCl, 1 M Tris, pH 8.0. The purity of the protein was verified by running polyacrylamide gel followed by Coomassie staining. The protein was subsequently dialyzed in 50 mM NaCl, 2 mM dithiothreitol (DTT) and 50 mM Tris, pH 7.4, and was concentrated to 10 mg/mL. The purified protein was stored at −80° C. in 100 μL to 150 μL aliquots.
as §3, §4
as §5, with “This” for “Slow-Onset Inhibition and Inhibition Constants.—The kinetics for slow onset inhibition and the Ki measurement was carried out by adding a known concentration of enzyme (1–5 nM) to a reaction mixture containing a substrate concentration of 200 μM. This”
as §6, §7, §8

[3] = Ki, initial inhibition constant
[4] = initial inhibition constant, read-out: Ki
[5] = Ki*, equilibrium dissociation constant after slow-onset, tight binding inhibition
[6] = equilibrium dissociation constant after slow-onset, tight binding inhibition, read-out: Ki*

Chain of MTAN (P0AF12 whole entry): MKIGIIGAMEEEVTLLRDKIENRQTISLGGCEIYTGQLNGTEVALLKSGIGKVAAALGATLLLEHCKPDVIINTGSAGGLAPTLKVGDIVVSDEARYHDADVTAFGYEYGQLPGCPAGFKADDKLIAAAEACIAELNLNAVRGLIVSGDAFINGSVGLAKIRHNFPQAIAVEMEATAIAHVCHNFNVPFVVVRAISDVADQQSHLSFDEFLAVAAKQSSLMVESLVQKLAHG

SMILES | Ki [1, 3] [nM] | Ki [2, 4] [nM] | Ki [1, 5] [nM] | Ki [2, 6] [nM] | inhibition of MTAN (in words) [1] | inhibition of MTAP (in words) [2] | Ki [1, 6] [nM] | Ki [1, 4] [nM]
Nc1ncnc2c([C@@H]3N[C@H](CSc4cccc5ccccc45)[C@H](O)C3O)c[nH]c12 (stereo partly shown) [5′-Napthylthio-ImmA] | 0.75 ± 0.033 | 52 ± 5 | – | – | – | – | – | –
CCSC[C@H]1N[C@@H](c2c[nH]c3c(N)ncnc23)C(O)[C@H]1O (stereo partly shown) [5′-Ethylthio-ImmA] | 0.073 ± 0.011 | 18 ± 2 | 0.027 ± 0.0003 | 0.26 ± 0.015 | – | – | – | –
Nc1ncnc2c([C@@H]3N[C@H](CSc4ccc(F)cc4)[C@H](O)C3O)c[nH]c12 (stereo partly shown) [5′-(p-Fluoro-phenyl-thio)-ImmA] | 0.082 ± 0.007 | 3 ± 0.2 | 0.02 ± 0.004 | – | – | – | – | –
Nc1ncnc2c([C@@H]3N[C@H](CSc4ccc(Cl)cc4)[C@H](O)C3O)c[nH]c12 (stereo partly drawn) [5′-(p-Chloro-Phenyl-thio)-ImmA, (1S)-1-(9-Deazaadenin-9-yl)-5-(4-chlorophenyl)thio-1,4-dideoxy-1,4-imino-D-ribitol] | 0.006 ± 0.0003 | 0.334 ± 0.036 | 0.006 | 0.09 ± 0.02 | – | – | – | –
Nc1ncnc2c([C@@H]3N[C@H](CSc4cccc(Cl)c4)[C@H](O)C3O)c[nH]c12 (stereo partly drawn) [5′-(m-Chloro-Phenyl-thio)-ImmA, (1S)-1-(9-Deazaadenin-9-yl)-5-(3-chlorophenyl)thio-1,4-dideoxy-1,4-imino-D-ribitol] | 0.044 ± 0.004 | 4 ± 0.4 | 0.02 ± 0.002 | – | – | – | – | –
Nc1ncnc2c([C@@H]3N[C@H](CSCCF)[C@H](O)C3O)c[nH]c12 (stereo partly shown) [5′-Fluoroethylthio-ImmA] | 0.103 ± 0.011 | 7 ± 0.5 | 0.03 ± 0.003 | 1.5 ± 0.17 | – | – | – | –
CSC[C@H]1N[C@@H](c2c[nH]c3c(=O)[nH]cnc23)C(O)C1O (stereo partly shown) [methylthio-ImmH, reference compound] | – | – | – | – | no inhibition | – | – | –
Nc1ncnc2c([C@@H]3N[C@H](CO)C(O)C3O)c[nH]c12 (stereo partly shown) [Immucillin A, reference compound] | – | – | – | – | – | no inhibition | – | –
Cc1ccc(SC[C@H]2N[C@@H](c3c[nH]c4c(N)ncnc34)C(O)[C@H]2O)cc1 (stereo partly shown) [5′-(p-tolylthio)-ImmA] | 0.018 ± 0.001 | 1.6 ± 0.2 | 0.008 ± 0.001 | 0.252 ± 0.023 | – | – | – | –
Cc1cccc(SC[C@H]2N[C@@H](c3c[nH]c4c(N)ncnc34)C(O)[C@H]2O)c1 (stereo partly shown) [5′-(m-tolylthio)-ImmA] | 0.015 ± 0.0006 | 0.602 ± 0.032 | 0.009 ± 0.001 | 0.146 ± 0.048 | – | – | – | –
CSC[C@H]1N[C@@H](c2n[nH]c3c(N)ncnc23)C(O)[C@H]1O (stereo partly drawn) [5′-methylthio-8-aza-ImmA, (1S)-1-(7-Amino-1H-pyrazolo[4,3-d]pyrimidin-3-yl)-1,4-dideoxy-1,4-imino-5-methylthio-D-ribitol] | 0.055 ± 0.003 | 7 ± 1 | 0.026 ± 0.0003 | 0.76 ± 0.14 | – | – | – | –
C[C@H]1N[C@@H](c2c[nH]c3c(N)ncnc23)[C@H](O)[C@@H]1O [5′-deoxy-ImmA, (1S)-1-(9-deazaadenin-9-yl)-1,4,5-trideoxy-1,4-imino-D-ribitol hydrochloride] | 13 ± 1 | 220 ± 14 | – | – | – | – | – | –
COC[C@H]1N[C@@H](c2c[nH]c3c(N)ncnc23)[C@H](O)[C@@H]1O [5′-Methoxy-ImmA, (1S)-1-(9-deazaadenin-9-yl)-1,4-dideoxy-1,4-imino-5-O-methyl-D-ribitol hydrochloride] | 10 ± 1 | 70 ± 5 | – | – | – | – | – | –
CCC[C@H]1N[C@@H](c2c[nH]c3c(N)ncnc23)[C@H](O)[C@@H]1O [5′-deoxy-5′-ethyl-ImmA, (1S)-1-(9-Deazaadenin-9-yl)-1,4,5-trideoxy-5-ethyl-1,4-imino-D-ribitol] | – | – | – | – | – | – | 0.038 ± 0.005 | 0.121 ± 0.005
Nc1ncnc2c([C@@H]3N[C@H](CSCc4ccccc4)[C@H](O)C3O)c[nH]c12 (stereo partly drawn) [5′-Benzylthio-ImmA, (1S)-1-(9-Deazaadenin-9-yl)-5-benzylthio-1,4-dideoxy-1,4-imino-D-ribitol] | 0.038 ± 0.003 | 12 ± 1 | 0.012 ± 0.001 | – | – | – | – | –
Nc1ncnc2c([C@@H]3N[C@H](CSCCO)[C@H](O)C3O)c[nH]c12 (stereo partly shown) [5′-Hydroxyethylthio-ImmA] | 0.407 ± 0.016 | 22 ± 2 | – | – | – | – | – | –
Nc1ncnc2c([C@@H]3N[C@H](CSc4ccccc4)[C@H](O)C3O)c[nH]c12 (stereo partly shown) | – | 0.89 ± 0.12 | – | 0.082 ± 0.009 | – | – | 0.032 ± 0.002 | 0.046 ± 0.003
